Like-named read-outs stand apart in the source and are kept apart here.
Molecular target: T1, IRAK4 (Homo sapiens, UniProt Q9NWZ3)
T1 construct: Degradation of IRAK4 in OCI-LY10 was quantitatively measured using Meso Scale Discovery technology; endogenous in cells; host or cells: OCI-LY10
T1 sequence (Q9NWZ3 1-460): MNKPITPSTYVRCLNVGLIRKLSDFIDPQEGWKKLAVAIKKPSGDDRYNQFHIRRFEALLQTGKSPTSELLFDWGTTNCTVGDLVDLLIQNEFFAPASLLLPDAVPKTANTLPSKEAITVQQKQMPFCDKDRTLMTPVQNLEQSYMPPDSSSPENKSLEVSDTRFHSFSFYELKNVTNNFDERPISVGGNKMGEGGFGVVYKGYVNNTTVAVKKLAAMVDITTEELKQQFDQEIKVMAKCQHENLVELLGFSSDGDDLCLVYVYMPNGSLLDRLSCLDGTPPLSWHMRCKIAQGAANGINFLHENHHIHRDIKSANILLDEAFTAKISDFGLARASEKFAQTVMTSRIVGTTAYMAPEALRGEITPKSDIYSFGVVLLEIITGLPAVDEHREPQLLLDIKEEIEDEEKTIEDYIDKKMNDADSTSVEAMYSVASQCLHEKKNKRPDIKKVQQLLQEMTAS
Experiment: IRAK4 MSD Degradation in OCI-LY10
Format: cell-based
Conditions: OCI-LY10 cells, MSD
Method: Degradation of IRAK4 in OCI-LY10 was quantitatively measured using Meso Scale Discovery technology. […] Compounds were then added to the assay plates with a final top concentration of 1 to 10 μM in a 1:3 dilution series with total of 8 doses. The assay plates were then incubated for 4 to 24 hours at 37° C. under 5% CO2. […] To prepare MSD assay plates (Meso Scale Discovery Catalog number L15XA-3), the plates were coated with 2 μg/mL capture antibody (mouse Anti-IRAK4 antibody [2H9], ab119942) in PBS, at 40 μL/well. […] Cell lysates were then added to MSD assay plates and the plates were incubated at room temperature for 1 hour. The plates were then washed 3 times with 150 μL/well TBST buffer and 25 μL/well primary detection antibody (rabbit Anti-IRAK4 antibody [Y279], from Abcam. Catalog number ab32511, 1 μg/mL). The assay plates were then incubated at room temperature for 1 hour, washed 3 times with 150 μL/well TBST buffer and 25 μL/well secondary detection antibody, SULFO-TAG anti-rabbit antibody were added (anti-rabbit antibody from Meso Scale Discovery, Catalog number R32AB-1, 1 μg/mL). The assay plates were then incubated at room temperature for 1 hour, washed 3 times with 150 μL/well TBST buffer, and 150 μL/well MSD reading buffer (Meso Scale Discovery catalog number R92TC-2) was added. The plates were then analyzed by a MSD reader (Meso Scale Discovery, Model Quick Plex SQ 120). The data was then analyzed by software Prism 7.0 from GraphPad and the dose-depended IRAK4 degradation were fit using a three-parameter logistic equation to calculate DC50.
The letter codes for IRAK4 DC50 include: A (<0.01 μM); B (0.01 to <0.1 μM); C (0.1 to 0.2 μM); and D (>0.2 μM or not tested).

[1] = 4 hrs incubation, read-out: IRAK4 degradation in OCI-LY10 at 4 hrs: DC50
[2] = 24 hrs incubation, read-out: IRAK4 degradation in OCI-LY10 at 24 hrs: DC50

| Compound | DC50 [1] | DC50 [2] |
| --- | --- | --- |
| Cn1c(=O)n(C2CCC(=O)NC2=O)c2cccc(C#CCOC3CCN(C[C@H]4CC[C@H](c5cnc(C(F)F)c(NC(=O)c6cnn7ccc(N8C[C@H]9C[C@@H]8CO9)nc67)c5)CC4)CC3)c21 (stereo partly drawn) [I-178] | > 200 nM | > 200 nM |
| Cn1c(=O)n(C2CCC(=O)NC2=O)c2ccc(F)c(C3CN(C4CCN([C@H]5CC[C@H](n6cc(NC(=O)c7cnn8ccc(N9C[C@H]%10C[C@@H]9CO%10)nc78)c(C(F)F)n6)CC5)CC4(F)F)C3)c21 (stereo partly drawn) [I-753] | > 200 nM | > 200 nM |
| C[C@H]1CN(c2ccn3ncc(C(=O)Nc4cn([C@H]5CC[C@H](CN6CCN(CC#Cc7cccc8c7n(C)c(=O)n8C7CCC(=O)NC7=O)CC6)CC5)nc4C(F)F)c3n2)CCO1 (stereo partly drawn) [I-405] | > 200 nM | > 200 nM |
| Cn1c(=O)n(C2CCC(=O)NC2=O)c2ccc(N3CC(N4CCN([C@H]5CC[C@H](n6cc(NC(=O)c7cnn8ccc(N9C[C@H]%10C[C@@H]9CO%10)nc78)c(C(F)F)n6)CC5)CC4)C3)c(F)c21 (stereo partly drawn) [I-751] | > 200 nM | > 200 nM |
| CN(C[C@H]1CC[C@H](n2cc3cc(NC(=O)c4cccc(C(F)(F)F)n4)ccc3n2)CC1)C1CCN(c2cccc3c2n(C)c(=O)n3C2CCC(=O)NC2=O)CC1(F)F (stereo partly drawn) [I-474] | > 200 nM | > 200 nM |
| Cn1c(=O)n(C2CCC(=O)NC2=O)c2cccc(C#CCOC3CN(C[C@H]4CC[C@H](n5cc(NC(=O)c6cnn7ccc(N8C[C@H]9C[C@@H]8CO9)nc67)c(C(F)F)n5)CC4)C3)c21 (stereo partly drawn) [I-20] | < 10 nM | > 200 nM |
| Cn1c(=O)n(C2CCC(=O)NC2=O)c2cccc(C#CCO[C@@H]3CCN(C[C@H]4CC[C@H](n5cc(NC(=O)c6cnn7ccc(N8C[C@H]9C[C@@H]8CO9)nc67)c(C(F)F)n5)CC4)C[C@@H]3F)c21 (stereo partly drawn) [I-35] | 10 to 100 nM | > 200 nM |
| Cn1c(=O)n(C2CCC(=O)NC2=O)c2cccc(N3CCC4C(C3)OCCN4C[C@H]3CC[C@H](n4cc(NC(=O)c5cnn6cccnc56)c(C(F)F)n4)CC3)c21 (stereo partly drawn) [I-404] | > 200 nM | > 200 nM |
| COC1(CN2CCN(C[C@H]3CC[C@H](n4cc(NC(=O)c5cnn6ccc(N7C[C@H]8CC7CO8)nc56)c(C(F)F)n4)CC3)CC2)CN(c2cccc3c2n(C)c(=O)n3C2CCC(=O)NC2=O)C1 (stereo partly drawn) [I-606] | > 200 nM | < 10 nM |
| Cn1c(=O)n(C2CCC(=O)NC2=O)c2cccc(C#CCN3CCN(C[C@H]4CC[C@H](n5cc(NC(=O)c6cnn7ccc(N8CCC9(CC8)COC9)nc67)c(C(F)F)n5)CC4)CC3)c21 (stereo partly drawn) [I-296] | 10 to 100 nM | > 200 nM |
| O=C1CCN(c2cncc3c(C4=CCN(C[C@H]5CC[C@H](n6cc7cc(NC(=O)c8cccc(C(F)(F)F)n8)ccc7n6)CC5)CC4(F)F)cccc23)C(=O)N1 [I-468] | > 200 nM | > 200 nM |
| COc1cc2nn([C@H]3CC[C@H](CN4CCC5(CC4)CCN(c4cccc6c(C7CCC(=O)NC7=O)cccc46)CC5)CC3)cc2cc1NC(=O)c1cncc(C#N)c1 (stereo partly drawn) [I-252] | > 200 nM | 10 to 100 nM |
| Cn1c(=O)n(C2CCC(=O)NC2=O)c2cccc(C#CCN3CCN(C[C@H]4CC[C@H](n5cc(NC(=O)c6cnn7ccc(N8CC9(COC9)C8)nc67)c(C(F)F)n5)CC4)CC3)c21 (stereo partly drawn) [I-315] | > 200 nM | < 10 nM |
| Cn1c(=O)n(C2CCC(=O)NC2=O)c2cccc(C#CCOC3CCN(C[C@H]4CC[C@H](n5cc(NC(=O)c6cnn7ccc(N8C[C@H]9C[C@@H]8CO9)nc67)c(Cl)n5)CC4)CC3)c21 (stereo partly drawn) [I-167] | > 200 nM | 10 to 100 nM |
| Cn1c(=O)n(C2CCC(=O)NC2=O)c2cccc(C#CCOC3CCN(C[C@H]4CC[C@H](n5cc(NC(=O)c6cnn7ccc(N8CCSCC8)nc67)c(C(F)F)n5)CC4)CC3)c21 (stereo partly drawn) [I-303] | > 200 nM | < 10 nM |
| Cn1c(=O)n(C2CCC(=O)NC2=O)c2cccc(N3CCN(CC4COC5(C4)CN(C[C@H]4CC[C@H](n6cc(NC(=O)c7cnn8ccc(N9C[C@H]%10C[C@@H]9CO%10)nc78)c(C(F)F)n6)CC4)C5)CC3)c21 (stereo partly drawn) [I-660] | > 200 nM | < 10 nM |

Further lines, results first:

| DC50 [1] | DC50 [2] | Compound |
| --- | --- | --- |
| > 200 nM | < 10 nM | Cn1c(=O)n(C2CCC(=O)NC2=O)c2cccc(N3CCN(C[C@]4(O)CC[C@@H](n5cc6cc(NC(=O)c7cccc(C(F)(F)F)n7)ccc6n5)CC4)CC3)c21 (stereo partly drawn) [I-684] |
| > 200 nM | > 200 nM | C[C@@H]1CN(c2ccn3ncc(C(=O)Nc4cn([C@H]5CC[C@H](CN(C)C6CCN(c7cccc8c7n(C)c(=O)n8C7CCC(=O)NC7=O)CC6(F)F)CC5)nc4C(F)F)c3n2)C[C@H](C)O1 (stereo partly drawn) [I-532] |
| > 200 nM | > 200 nM | Cn1c(NC(=O)c2cccc(C(F)(F)F)n2)cc2cn([C@H]3CC[C@H](CN4CC[C@@H](c5cccc6c5n(C)c(=O)n6C5CCC(=O)NC5=O)[C@H](F)C4)CC3)nc2c1=O (stereo partly drawn) [I-776] |
| > 200 nM | > 200 nM | COC(C)(C)c1ccn2ncc(C(=O)Nc3cn([C@H]4CC[C@H](CN5CCN(CC#Cc6cccc7c6n(C)c(=O)n7C6CCC(=O)NC6=O)CC5)CC4)nc3C(F)F)c2n1 (stereo partly drawn) [I-220] |
| > 200 nM | < 10 nM | COc1cc2nn([C@H]3CC[C@H](CN4CCC(c5cccc6c5n(C)c(=O)n6C5CCC(=O)NC5=O)C(F)C4)CC3)cc2cc1NC(=O)c1cccc(C(F)(F)F)n1 (stereo partly drawn) [I-547] |
| < 10 nM | > 200 nM | O=C1CCN(c2cncc3cc(C4CCN(C5CCN(C[C@H]6CC[C@H](n7cc(NC(=O)c8cnn9ccc(N%10C[C@H]%11C[C@@H]%10CO%11)nc89)c(C(F)F)n7)CC6)CC5)CC4)ccc23)C(=O)N1 [I-75] |
| 10 to 100 nM | > 200 nM | Cn1c(=O)n(C2CCC(=O)NC2=O)c2cccc(C#CCOC3CCN(C[C@H]4CC[C@H](n5cc(NC(=O)c6cnn7ccc(N8CC9(CCCOC9)C8)nc67)c(C(F)F)n5)CC4)CC3)c21 (stereo partly drawn) [I-328] |
| < 10 nM | > 200 nM | COc1ccc2c(c1C#CCO[C@@H]1CCN(C[C@H]3C[C@H](n4cc(NC(=O)c5cnn6ccc(N7C[C@H]8C[C@@H]7CO8)nc56)c(C(F)F)n4)C3)C[C@@H]1F)n(C)c(=O)n2C1CCC(=O)NC1=O (stereo partly drawn) [I-54] |
| > 200 nM | > 200 nM | CN(C[C@H]1CC[C@H](n2cc3cc(NC(=O)c4cccc(C(F)(F)F)n4)c([S+](C)[O-])cc3n2)CC1)C1CCN(c2cccc3c2n(C)c(=O)n3C2CCC(=O)NC2=O)CC1(F)F (stereo partly drawn) [I-478] |
| > 200 nM | > 200 nM | Cn1c(=O)n(C2CCC(=O)NC2=O)c2cccc(C3CCN(C[C@H]4CC[C@H](n5cc6cc(NC(=O)c7cccc(C(F)(F)F)n7)c(F)cc6n5)CC4)CC3(F)F)c21 (stereo partly drawn) [I-449] |
| < 10 nM | > 200 nM | Cn1c(=O)n(C2CCC(=O)NC2=O)c2cccc(C#CCN3CCN(C[C@H]4CC[C@H](n5cc(NC(=O)c6cnn7ccc(N8C9CCC8COC9)nc67)c(C(F)F)n5)CC4)CC3)c21 (stereo partly drawn) [I-339] |
| > 200 nM | > 200 nM | Cn1c(=O)n(C2CCC(=O)NC2=O)c2cccc(C#CCOC3CCN(C[C@H]4CC[C@H](c5nc(C(F)F)c(NC(=O)c6cnn7ccc(N8C[C@H]9C[C@@H]8CO9)nc67)s5)CC4)CC3)c21 (stereo partly drawn) [I-205] |
| > 200 nM | > 200 nM | Cn1c(=O)n(C2CCC(=O)NC2=O)c2cccc(C3=CCN(C[C@H]4CC[C@H](n5cc6cc(NC(=O)c7cccc(C(F)(F)F)n7)c(C#N)cc6n5)CC4)CC3F)c21 (stereo partly drawn) [I-458] |
| > 200 nM | > 200 nM | Cn1c(=O)n(C2CCC(=O)NC2=O)c2cccc(N3CC(OC4CCN(C[C@H]5CC[C@H](n6cc(NC(=O)c7cnn8ccc(N9C[C@H]%10C[C@@H]9CO%10)nc78)c(C(F)F)n6)CC5)CC4)C3)c21 (stereo partly drawn) [I-601] |
